Measured values taken from PubChem BioAssay AID330 (DTP/NCI, 2004).
Several values for one entry are separate records, joined by “and”; a condition that tells them apart may be missing. Equal entries are not always repeated. Toxic doses and inconclusive results are not listed. Rule for the calls: active = survival T/C of 150% or more; inactive = T/C below 125% in these data.

System: P388 leukemia ip, CD2F1 mice, survival T/C
Test: NCI In Vivo Anticancer Drug Screen. Data for tumor model P388 Leukemia (intraperitoneal) in CD2F1 (CDF1) mice
Details: endpoint: median survival time, higher = longer survival
Procedure, shortened: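 Mice carrying the transplanted tumor received test compound or vehicle. Survival was recorded in each group, and the value is the treated-group measurement divided by that of the vehicle-treated control group.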

[1] = dose: 6.25 mg/kg/injection, schedule: Q01DX009 (ip), vehicle: saline
[2] = dose: 12.5 mg/kg/injection, schedule: Q01DX009 (ip), vehicle: saline
[3] = dose: 100.0 mg/kg/injection, schedule: Q04DX003 (ip), vehicle: Klucel (hydroxypropylcellulose) (HPC)
[4] = dose: 200.0 mg/kg/injection, schedule: Q04DX003 (ip), vehicle: Klucel (hydroxypropylcellulose) (HPC)
[5] = dose: 400.0 mg/kg/injection, schedule: Q04DX003 (ip), vehicle: Klucel (hydroxypropylcellulose) (HPC)
[6] = dose: 60.0 mg/kg/injection, schedule: Q01DX005 (ip), vehicle: saline with Tween-80
[7] = dose: 120.0 mg/kg/injection, schedule: Q01DX005 (ip), vehicle: saline with Tween-80
[8] = dose: 240.0 mg/kg/injection, schedule: Q01DX005 (ip), vehicle: saline with Tween-80
[9] = dose: 50.0 mg/kg/injection, schedule: Q01DX009 (ip), vehicle: saline
[10] = dose: 100.0 mg/kg/injection, schedule: Q01DX009 (ip), vehicle: saline
[11] = dose: 200.0 mg/kg/injection, schedule: Q01DX009 (ip), vehicle: saline
[12] = dose: 50.0 mg/kg/injection, schedule: Q01DX005 (ip), vehicle: saline with Tween-80
[13] = dose: 100.0 mg/kg/injection, schedule: Q01DX005 (ip), vehicle: saline with Tween-80
[14] = dose: 200.0 mg/kg/injection, schedule: Q01DX005 (ip), vehicle: saline with Tween-80
[15] = dose: 100.0 mg/kg/injection, schedule: Q01DX001 (ip), vehicle: Klucel (hydroxypropylcellulose) (HPC)
[16] = dose: 200.0 mg/kg/injection, schedule: Q01DX001 (ip), vehicle: Klucel (hydroxypropylcellulose) (HPC)
[17] = dose: 400.0 mg/kg/injection, schedule: Q01DX001 (ip), vehicle: Klucel (hydroxypropylcellulose) (HPC)
[18] = dose: 50.0 mg/kg/injection, schedule: Q01DX009 (ip), vehicle: saline with Tween-80
[19] = dose: 12.5 mg/kg/injection, schedule: Q01DX009 (ip), vehicle: Klucel (hydroxypropylcellulose) (HPC)
[20] = dose: 25.0 mg/kg/injection, schedule: Q01DX009 (ip), vehicle: Klucel (hydroxypropylcellulose) (HPC)
[21] = dose: 50.0 mg/kg/injection, schedule: Q01DX009 (ip), vehicle: Klucel (hydroxypropylcellulose) (HPC)
[22] = dose: 30.0 mg/kg/injection, schedule: Q01DX005 (ip), vehicle: Klucel (hydroxypropylcellulose) (HPC)
[23] = dose: 60.0 mg/kg/injection, schedule: Q01DX005 (ip), vehicle: Klucel (hydroxypropylcellulose) (HPC)
[24] = dose: 120.0 mg/kg/injection, schedule: Q01DX005 (ip), vehicle: Klucel (hydroxypropylcellulose) (HPC)
[25] = dose: 240.0 mg/kg/injection, schedule: Q01DX005 (ip), vehicle: Klucel (hydroxypropylcellulose) (HPC)
[26] = dose: 100.0 mg/kg/injection, schedule: Q01DX009 (ip), vehicle: Klucel (hydroxypropylcellulose) (HPC)

Measured: T/C

COC1=C(OC)C(=O)C(SCCCCCCC2CCCCC2)=C(Cl)C1=O
inactive: dose: 0.2 mg/kg/injection, schedule: Q01DX009 (ip), vehicle: saline 95 % of control | dose: 0.4 mg/kg/injection, schedule: Q01DX009 (ip), vehicle: saline 101 % of control | dose: 0.8 mg/kg/injection, schedule: Q01DX009 (ip), vehicle: saline 101 % of control | dose: 1.6 mg/kg/injection, schedule: Q01DX009 (ip), vehicle: saline 102 % of control | dose: 3.13 mg/kg/injection, schedule: Q01DX009 (ip), vehicle: saline 105 % of control | [1] 106 % of control

CCCCCCCCCCCCCCCCCC[N+]1(CC)CCCC1
inactive: [1] 97 % of control | [2] 97 % of control | dose: 25.0 mg/kg/injection, schedule: Q01DX009 (ip), vehicle: saline 97 % of control

Cc1ccc(NC(=O)C(C)C)cc1
inactive: [3] 100 % of control | [4] 101 % of control | [5] 109 % of control

Nc1ccc(C(=O)Nc2ccc(C(=O)Nc3ccc4cc(S(=O)(=O)O)cc(S(=O)(=O)O)c4c3)cc2)cc1
inactive: dose: 50.0 mg/kg/injection, schedule: Q01DX005 (ip), vehicle: saline 103 % of control | dose: 100.0 mg/kg/injection, schedule: Q01DX005 (ip), vehicle: saline 103 % of control | dose: 200.0 mg/kg/injection, schedule: Q01DX005 (ip), vehicle: saline 103 % of control

CCC1=NO[C@@H](C)[C@H]1C(=O)OCc1ccccc1
inactive: [6] 106 % of control | [7] 100 % of control | [8] 97 % of control

CC(C=NC1CCCCC1)c1ccccc1 (stereo unspecified)
inactive: [9] 96 % of control | [10] 87 % of control | [11] 102 % of control

CNC(=O)c1ccc[n+](C2OC(COC(C)=O)C(OC(C)=O)C2OC(C)=O)c1 (stereo unspecified)
inactive: [12] 100 % of control | [13] 97 % of control | [14] 91 % of control

FC(F)(F)c1nn2c(-c3cnns3)nnc2s1
inactive: [15] 98 % of control | [16] 99 % of control | [17] 104 % of control

CC1=NCCN=C(C)C1N=Nc1ccc(S(=O)(=O)N=C(N)N)cc1
inactive: dose: 100.0 mg/kg/injection, schedule: Q04DX003 (ip), vehicle: saline with Tween-80 90 % of control | dose: 200.0 mg/kg/injection, schedule: Q04DX003 (ip), vehicle: saline with Tween-80 92 % of control | dose: 400.0 mg/kg/injection, schedule: Q04DX003 (ip), vehicle: saline with Tween-80 90 % of control

N#Cc1cc(Br)ccc1[N+](=O)[O-]
inactive: [1] 103 % of control | [2] 101 % of control | [9] 94 % of control | [10] 90 % of control | [11] 99 % of control

COc1ccc(C2=C/C(=C/c3ccc(N(CCC#N)CCC#N)cc3)C(=O)O2)cc1
inactive: dose: 100.0 mg/kg/injection, schedule: Q01DX001 (ip), vehicle: saline with Tween-80 97 % of control | dose: 200.0 mg/kg/injection, schedule: Q01DX001 (ip), vehicle: saline with Tween-80 95 % of control | dose: 400.0 mg/kg/injection, schedule: Q01DX001 (ip), vehicle: saline with Tween-80 92 % of control

c1cnc(Nc2c3ccccc3nc3ccccc23)nc1
inactive: dose: 100.0 mg/kg/injection, schedule: Q04DX002 (ip), vehicle: saline with Tween-80 103 % of control | dose: 200.0 mg/kg/injection, schedule: Q04DX002 (ip), vehicle: saline with Tween-80 103 % of control | dose: 400.0 mg/kg/injection, schedule: Q04DX002 (ip), vehicle: saline with Tween-80 94 % of control

N/N=C(/N)C1=NOCC1
inactive: dose: 100.0 mg/kg/injection, schedule: Q04DX002 (ip), vehicle: saline 114 % of control | dose: 200.0 mg/kg/injection, schedule: Q04DX002 (ip), vehicle: saline 106 % of control

CC(C)(C)C(C)(C)c1ccc(OCCSCCOc2ccc(C(C)(C)C(C)(C)C)cc2)cc1
inactive: [18] 92 % of control | dose: 100.0 mg/kg/injection, schedule: Q01DX009 (ip), vehicle: saline with Tween-80 90 % of control | dose: 200.0 mg/kg/injection, schedule: Q01DX009 (ip), vehicle: saline with Tween-80 87 % of control

CC(C)=CCC1=CC(=O)C=CC1=O
inactive: dose: 6.25 mg/kg/injection, schedule: Q01DX009 (ip), vehicle: saline with Tween-80 98 % of control | dose: 12.5 mg/kg/injection, schedule: Q01DX009 (ip), vehicle: saline with Tween-80 99 % of control | dose: 25.0 mg/kg/injection, schedule: Q01DX009 (ip), vehicle: saline with Tween-80 107 % of control | [18] 114 % of control

CCC1c2ccccc2[C@H]2C(c3ccccc3)=NN(c3ccccc3)[C@H]2N1CC (stereo partly specified)
inactive: [12] 100 % of control | [13] 92 % of control | [14] 90 % of control

O=S1(=O)CCN(C2CC2)CC1
inactive: [19] 98 % of control | [20] 100 % of control | [21] 111 % of control

Nc1[nH]c(=S)[nH]c(=O)c1NS(=O)(=O)c1ccc([N+](=O)[O-])cc1
inactive: [22] 101 % of control and 108 % of control | [23] 98 % of control and 94 % of control | [24] 101 % of control and 92 % of control | [25] 90 % of control

Cc1cc2nc(/N=C/c3nc(O)c(C)[nH]3)[nH]c2cc1C
inactive: [22] 103 % of control | [23] 98 % of control | [24] 99 % of control | [25] 104 % of control

NC(=O)c1cccn1Cc1ccccc1SSc1ccccc1Cn1cccc1C(N)=O
inactive: [6] 91 % of control | [7] 87 % of control

O=C(Nc1ccccc1)C1C(=O)C(=O)N(c2ccccc2)C1=O (stereo unspecified)
inactive: [21] 107 % of control | [26] 101 % of control | dose: 200.0 mg/kg/injection, schedule: Q01DX009 (ip), vehicle: Klucel (hydroxypropylcellulose) (HPC) 99 % of control

COC(=O)C1=CCN2CCCC12C (stereo unspecified)
inactive: dose: 25.0 mg/kg/injection, schedule: Q01DX001 (ip), vehicle: saline 97 % of control | dose: 50.0 mg/kg/injection, schedule: Q01DX001 (ip), vehicle: saline 101 % of control | dose: 100.0 mg/kg/injection, schedule: Q01DX001 (ip), vehicle: saline 105 % of control

COc1ccc(C(F)C(N)C#N)cc1 (stereo unspecified)
inactive: dose: 60.0 mg/kg/injection, schedule: Q01DX005 (ip), vehicle: saline 109 % of control | dose: 120.0 mg/kg/injection, schedule: Q01DX005 (ip), vehicle: saline 98 % of control | dose: 240.0 mg/kg/injection, schedule: Q01DX005 (ip), vehicle: saline 107 % of control

O=[N+]([O-])/C=C/c1ccc(Cl)cc1Cl
inactive: dose: 20.0 mg/kg/injection, schedule: Q04DX003 (ip), vehicle: saline with Tween-80 118 % of control | dose: 40.0 mg/kg/injection, schedule: Q04DX003 (ip), vehicle: saline with Tween-80 118 % of control | dose: 80.0 mg/kg/injection, schedule: Q04DX003 (ip), vehicle: saline with Tween-80 118 % of control

CCOc1cccc(Cc2c[nH]c(=O)[nH]c2=O)c1
inactive: [6] 94 % of control | [7] 92 % of control | [8] 90 % of control

CC1C=C(COC(=O)Nc2ccccc2)ON1c1ccccc1 (stereo unspecified)
inactive: [15] 108 % of control | [16] 97 % of control | [17] 100 % of control

CC(=O)OCC1C(OC(C)=O)C(OC(C)=O)C(COC(C)=O)N1C(C)=O (stereo unspecified)
inactive: [3] 90 % of control | [4] 90 % of control | [5] 87 % of control

C=C1C(=O)OC2CC1C(OC(=O)/C=C/c1ccccc1)C/C(C)=C/CC/C(C)=C/CCC2(C)O (stereo unspecified)
inactive: [19] 113 % of control | [20] 113 % of control | [21] 118 % of control | [26] 110 % of control
